Measured values as given in ChEMBL document CHEMBL4828777, “Effect of the Chromone Core Substitution of Dirchromone on the Resultant Biological Activities” (J Nat Prod, 2021).
In brackets after ≈: the same amount, converted by molar mass.

How the values were obtained:
A549 = assay: Cytotoxicity against human A549 cells assessed as reduction in cell viability incubated for 48 hrs by Hoechst staining based assay; format: functional; details: A549, 48 h
DLD-1 = assay: Cytotoxicity against human DLD-1 cells assessed as reduction in cell viability incubated for 48 hrs by Hoechst staining based assay; format: functional; details: DLD-1, 48 h
Candida albicans = assay: […] activity against Candida albicans ATCC 10231 assessed as reduction in fungal growth incubated for 24 hrs by microdilution method; format: functional
[1] = Cytotoxicity against human WS1 cells assessed as reduction in cell viability incubated for 48 hrs by Hoechst staining based assay; details: WS1, 48 h
Staphylococcus aureus = assay: Antibacterial activity against Staphylococcus aureus ATCC 25923 assessed as reduction in bacterial growth incubated for 24 hrs by microdilution method; format: functional

| Compound | IC50 (A549) | IC50 (DLD-1) | MIC90 (Candida albicans) | IC50 [1] | MIC90 (Staphylococcus aureus) |
| --- | --- | --- | --- | --- | --- |
| COc1ccc2oc(/C=C/[S+](C)[O-])cc(=O)c2c1 (racemic) | 1.6 µM | 5.7 µM | > 100 µM | 1.3 µM | 6.1 µM (≈ 1.61 µg/mL) |
| C[S+]([O-])/C=C/c1cc(=O)c2cc(Br)ccc2o1 (racemic) | 1.1 µM | 4.5 µM | 47 µM (≈ 14.7 µg/mL) | 1 µM | 2.5 µM (≈ 0.783 µg/mL) |
| CC(C)Oc1ccc2oc(/C=C/[S+](C)[O-])cc(=O)c2c1 (racemic) | 1.5 µM | 8 µM | 84 µM (≈ 24.6 µg/mL) | 1.4 µM | 11.1 µM (≈ 3.25 µg/mL) |
| Cc1c(/C=C/[S+](C)[O-])oc2ccccc2c1=O (racemic) | 1.5 µM | 7.2 µM | > 100 µM | 2.1 µM | 20 µM (≈ 4.97 µg/mL) |
| C[S+]([O-])/C=C/c1cc(=O)c2ccc3ccccc3c2o1 (racemic) | 1.4 µM | 7 µM | > 100 µM | 1.9 µM | 4.8 µM (≈ 1.36 µg/mL) |
| CCCOc1ccc2oc(/C=C/[S+](C)[O-])cc(=O)c2c1 (racemic) | 1.1 µM | 6.2 µM | 39 µM (≈ 11.4 µg/mL) | 1.9 µM | 11 µM (≈ 3.22 µg/mL) |
| CCOc1ccc2oc(/C=C/[S+](C)[O-])cc(=O)c2c1 (racemic) | 1.5 µM | 4.9 µM | 67 µM (≈ 18.6 µg/mL) | 2 µM | 11.4 µM (≈ 3.17 µg/mL) |
| CC(C)CCOc1ccc2oc(/C=C/[S+](C)[O-])cc(=O)c2c1 (racemic) | 1 µM | 4.1 µM | 8.4 µM (≈ 2.69 µg/mL) | 0.85 µM | 2.8 µM (≈ 0.897 µg/mL) |
| C[S+]([O-])/C=C/c1cc(=O)c2cc(C#N)ccc2o1 (racemic) | > 10 µM | > 10 µM | > 100 µM | > 10 µM | 5.6 µM (≈ 1.45 µg/mL) |
| C[S+]([O-])/C=C/c1cc(=O)c2cc(OC(=O)C(C)(C)C)ccc2o1 (racemic) | 1.6 µM | 8 µM | 71 µM (≈ 23.7 µg/mL) | 1 µM | 10 µM (≈ 3.34 µg/mL) |
| CCC(=O)Oc1ccc2oc(/C=C/[S+](C)[O-])cc(=O)c2c1 (racemic) | 2.4 µM | 9 µM | > 100 µM | 2.1 µM | 10 µM (≈ 3.06 µg/mL) |
| COc1ccc2c(=O)cc(/C=C/[S+](C)[O-])oc2c1 (racemic) | 2.2 µM | 7.8 µM | > 100 µM | 1.8 µM | 20 µM (≈ 5.29 µg/mL) |
| C[C@@H]1[C@H](O)[C@@H](C)/C=C/C=C/C=C/C=C/C=C/C=C/C=C/[C@H](O[C@@H]2O[C@H](C)[C@@H](O)[C@H](N)[C@@H]2O)C[C@@H]2O[C@](O)(C[C@@H](O)C[C@@H](O)[C@H](O)CC[C@@H](O)C[C@@H](O)CC(=O)O[C@H]1C)C[C@H](O)[C@H]2C(=O)O [AMPHOTERICIN B] |  |  | 1.4 µM (≈ 1.29 µg/mL) |  |  |
| C[S+]([O-])/C=C/c1cc(=O)c2cc3c(cc2o1)OCO3 (racemic) | 2.1 µM | 6 µM | > 100 µM | 2 µM | 39 µM (≈ 10.9 µg/mL) |
| Cc1cccc2c(=O)cc(/C=C/[S+](C)[O-])oc12 (racemic) | 1.7 µM | 6.8 µM | > 100 µM | 2.2 µM | 10 µM (≈ 2.48 µg/mL) |
| C[S+]([O-])/C=C/c1oc2ccccc2c(=O)c1Cc1ccccc1 (racemic) | 1.3 µM | 5.1 µM | > 100 µM | 1.2 µM | 2.9 µM (≈ 0.941 µg/mL) |
| CC(C)C(=O)Oc1ccc2oc(/C=C/[S+](C)[O-])cc(=O)c2c1 (racemic) | 2.4 µM | 9.1 µM | > 100 µM | 1.9 µM | 9 µM (≈ 2.88 µg/mL) |
| GENTAMICIN |  |  |  |  | 0.09 µM |
